Reference: US20230346779A1, “DOSAGE FORM COMPOSITIONS COMPRISING AN INHIBITOR OF BTK AND MUTANTS THEREOF” (Newave Pharmaceutical Inc., priority 2020, published 2023)

How the values were obtained:
[1] = Solubility of free base in buffers of varying pH; format: physicochemical
Procedure: The solubility of a typical API (i.e., Compound 2 as disclosed herein) in free base form was evaluated in buffers of varying pH.

[2] = Stability of HCl salt at different temperatures for 8 hours; format: physicochemical
Procedure: The stability of a Compound 2 HCl salt at different temperatures for 8 hours is shown below. The initial purity at TO is 96.5%. […] Similar observation was also made for several other compounds of the invention.

Ave. Conc. ([1]; 0.01N HCl)	Ave. Conc. ([1]; Water)	Ave. Conc. ([1]; pH 2.0)	Ave. Conc. ([1]; pH 3.0)	Ave. Conc. ([1]; pH 4.5)	Ave. Conc. ([1]; pH 6.8)	Purity (%) at 8 h ([2]; 50° C., 8 hours)	Purity (%) at 8 h ([2]; 80° C., 8 hours)	Purity (%) at 8 h ([2]; 100° C., 8 hours)	stability assessment of HCl salt ([2]; different temperatures, 8 hours)	initial purity ([2]; stability study, at TO (start))	Structure (SMILES)
55.52 mg/mL	0.09 mg/mL	9.67 mg/mL	2.07 mg/mL	1.81 mg/mL	0.02 mg/mL	–	–	–	–	–	C=CC(=O)Nc1cc(Nc2nc(-c3ccnc(N4CCn5c(cc6c5CC(C)(C)C6)C4=O)c3CO)cn(C)c2=O)ccc1N1CCN(C2CCOCC2)C[C@@H]1C [Compound 2, N-(5-[[6-(2-[4,4-dimethyl-9-oxo-1,10-diazatricyclo[6.4.0.0^[2,6]]dodeca-2(6),7-dien-10-yl]-3-(hydroxymethyl)pyridin-4-yl)-4-methyl-3-oxopyrazin-2-yl]amino]-2-[(2S)-2-methyl-4-(oxan-4-yl)piperazin-1-yl]phenyl)prop-2-enamide]
–	–	–	–	–	–	95.7%	90.1%	84.7%	not sufficiently stable	96.5%	C=CC(=O)Nc1cc(Nc2nc(-c3ccnc(N4CCn5c(cc6c5CC(C)(C)C6)C4=O)c3CO)cn(C)c2=O)ccc1N1CCN(C2CCOCC2)C[C@@H]1C.Cl [Compound-2 HCl, N-(5-[[6-(2-[4,4-dimethyl-9-oxo-1,10-diazatricyclo[6.4.0.0^[2,6]]dodeca-2(6),7-dien-10-yl]-3-(hydroxymethyl)pyridin-4-yl)-4-methyl-3-oxopyrazin-2-yl]amino]-2-[(2S)-2-methyl-4-(oxan-4-yl)piperazin-1-yl]phenyl)prop-2-enamide hydrochloride]
